Drawing on patent US12668600B2 (Kumquat Biosciences Inc., priority 2023, dated 2026), this text covers IC50 for eleven molecules.

What all share (assay type): biochemical
Assay [1] deals with T1, KRAS G12S (Homo sapiens, UniProt P01116, G12S).
T1 construct: made in house; host or cells: E. coli, e.g. BL21 (DE3)
Briefly: HTRF KRAS-SOS1 interaction assay, KRAS G12S. The conditions noted are these: binned ≤2 μM / >2 μM, read-out: Inhibition of KRAS G12S (IC50). The text has this:
(§1) This assay can be also used to assess a selective inhibition or reduction of signaling output of a mutant Ras protein relative to a wildtype, or relative to a different mutant Ras protein. For example, the equilibrium interaction of wildtype KRAS or K-Ras mutant (e.g., wildtype or a mutant thereof) with SOS1 (e.g., hSOS1) can be assessed as a proxy or an indication for the ability of a subject compound to bind and inhibit Ras protein. The HTRF assay detects from (i) a fluorescence resonance energy transfer (FRET) donor (e.g., antiGST-Europium) that is bound to GST-tagged K-Ras mutant to (ii) a FRET acceptor (e.g., anti-6His-XL665) bound to a His-tagged hSOS1.
(§2) The assay buffer can contain ˜5 mM HEPES pH 7.4, ˜150 mM NaCl, ˜1 mM DTT, 0.05% BSA and 0.0025% (v/v) Igepal. A Ras working solution is prepared in an assay buffer containing typically a suitable amount of the protein construct (e.g., GST-tagged K-Ras mutant) and the FRET donor (e.g., antiGST-Eu (K) from Cisbio, France). A SOS1 working solution is prepared in an assay buffer containing suitable amount of the protein construct (e.g., His-hSOS1) and the FRET acceptor (e.g., anti-6His-XL665 from Cisbio, France). A suitable amount of the protein construct will depend on the range of activity or range of IC50 values being detected or under investigation. For detecting an IC50 within a range of 500 nM, the protein constructs of the same range of molarity can be utilized.
(§3) A fixed volume of DMSO with or without test compound is transferred into a 384-well plate. Ras working solution is added to all wells of the test plate. SOS1 working solution is added to all wells except for those that are subsequently filled with inhibitor control solution. Upon incubation for about 10 minutes or longer, the fluorescence is measured with a M1000Pro plate reader (Tecan) using HTRF detection (excitation 337 nm, emission 1:620 nm, emission 2:665 nm). Compounds are tested in duplicate at different concentrations (for example, 10 μM, 2.5 μM, 0.63 μM, 0.16 μM, 0.04 μM, 0.01 μM test compound). The ratiometric data (i.e., emission 2 divided by emission 1) is used to calculate IC50 values against Ras using GraphPad Prism (GraphPad software). Signaling output measured in terms of IC50 values can be obtained and a ratio of IC50 against one mutant relative to another mutant can be calculated.

Assay [2] has as its target T2, KRAS G12D (Homo sapiens, UniProt P01116, G12D).
T2 construct: made in house; host or cells: E. coli, e.g. BL21 (DE3)
Briefly: HTRF KRAS-SOS1 interaction assay, KRAS G12D. The conditions noted are these: binned ≤2 μM / >2 μM, read-out: Inhibition of KRAS G12D (IC50).
From the text: as §1, §2, §3

For assay [3], the target named is T3, KRAS G12V (Homo sapiens, UniProt P01116, G12V).
T3 construct: made in house; host or cells: E. coli, e.g. BL21 (DE3)
T3 sequence (P01116 1-188 isoform P01116-2 G12V): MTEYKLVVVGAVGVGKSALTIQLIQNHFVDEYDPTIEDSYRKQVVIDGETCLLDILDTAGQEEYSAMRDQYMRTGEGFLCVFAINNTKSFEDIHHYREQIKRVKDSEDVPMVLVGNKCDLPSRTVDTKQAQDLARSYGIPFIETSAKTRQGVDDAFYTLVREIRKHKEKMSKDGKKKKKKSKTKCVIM
The assay is described as follows: HTRF KRAS-SOS1 interaction assay, KRAS G12V. The conditions noted are these: binned ≤2 μM / >2 μM, read-out: Inhibition of KRAS G12V (IC50).
From the text: as §1, §2, §3

Assay [4] deals with T4, KRAS WT (Homo sapiens, UniProt P01116).
T4 construct: made in house; host or cells: E. coli, e.g. BL21 (DE3)
T4 sequence (P01116 1-188 isoform P01116-2): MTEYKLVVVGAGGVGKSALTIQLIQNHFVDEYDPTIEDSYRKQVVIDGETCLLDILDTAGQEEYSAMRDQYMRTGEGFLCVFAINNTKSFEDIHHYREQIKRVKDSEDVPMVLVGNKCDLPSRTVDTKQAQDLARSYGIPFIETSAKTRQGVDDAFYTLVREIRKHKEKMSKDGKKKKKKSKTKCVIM
The assay is described as follows: HTRF KRAS-SOS1 interaction assay, wildtype KRAS. The note with it: binned ≤2 μM / >2 μM, read-out: Inhibition of KRAS WT (IC50).
From the text: as §1, §2, §3

T1 sequence (P01116 1-188 isoform P01116-2 G12S): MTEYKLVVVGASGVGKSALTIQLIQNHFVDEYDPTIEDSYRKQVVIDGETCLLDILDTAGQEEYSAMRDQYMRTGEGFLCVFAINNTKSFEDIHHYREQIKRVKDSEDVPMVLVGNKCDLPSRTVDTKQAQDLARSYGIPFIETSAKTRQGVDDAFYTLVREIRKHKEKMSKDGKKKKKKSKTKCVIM
T2 sequence (P01116 1-188 isoform P01116-2 G12D): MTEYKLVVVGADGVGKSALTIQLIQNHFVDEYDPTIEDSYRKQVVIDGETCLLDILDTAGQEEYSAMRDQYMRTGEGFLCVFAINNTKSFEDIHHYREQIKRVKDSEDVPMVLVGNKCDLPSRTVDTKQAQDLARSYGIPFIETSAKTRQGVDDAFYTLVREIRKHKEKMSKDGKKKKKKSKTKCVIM

Take `C[C@H](c1cc(Cl)cnc1N)N1CCOc2c(C(F)(F)F)c(-c3ccc(F)c4sc(N)c(C#N)c34)c(F)c3nc(OCC4(CN5CC[C@@H](F)C5)CC4)nc1c23` [Compound 811, 2-amino-4-(4-((R)-1-(2-amino-5-chloropyridin-3-yl)ethyl)-10-fluoro-2-((1-(((R)-3-fluoropyrrolidin-1-yl)methyl)cyclopropyl)methoxy)-8-(trifluoromethyl)-5,6-dihydro-4H-[1,4]oxazepino[5,6,7-de]quinazolin-9-yl)-7-fluorobenzo[b]thiophene-3-carbonitrile]: the IC50 in assay [1], in assay [2], in assay [3] and in assay [4] was no more than 2000 nM each time.
`N#Cc1c(N)sc2c(F)ccc(-c3c(C(F)(F)F)c4c5c(nc(OC[C@@]67CCCN6C[C@H](F)C7)nc5c3F)N([C@H](CC3CCC3)c3cccnc3N)CCO4)c12` (single isomer, unassigned) [Compound 902]: the IC50 in assay [1], in assay [2], in assay [3] and in assay [4] was greater than 2000 nM each time.
Take `C[C@H](c1cc(C(F)(F)F)cnc1N)N1CCOc2c(Cl)c(-c3ccc(F)c4sc(N)c(C#N)c34)c(F)c3nc(OC[C@@]45CCCN4C[C@H](F)C5)nc1c23` [Compound 869, 2-amino-4-(4-((R)-1-(2-amino-5-(trifluoromethyl)pyridin-3-yl)ethyl)-8-chloro-10-fluoro-2-(((2R,7aS)-2-fluorotetrahydro-1H-pyrrolizin-7a(5H)-yl)methoxy)-5,6-dihydro-4H-[1,4]oxazepino[5,6,7-de]quinazolin-9-yl)-7-fluorobenzo[b]thiophene-3-carbonitrile]: the IC50 in assay [1], in assay [2], in assay [3] and in assay [4] was no more than 2000 nM in each case.
In the case of `C#Cc1c(F)ccc2cc(O)cc(-c3nc4c5c(nc(O[C@@H](C)[C@@H]6CCCN6C)nc5c3F)N([C@H](C)c3cccnc3N)CCO4)c12` (single isomer, unassigned) [Compound 779], the IC50 in assay [1], in assay [2], in assay [3] and in assay [4] was no more than 2000 nM each time.
Regarding `N#Cc1c(N)sc2c(F)ccc(-c3c(C(F)(F)F)c4c5c(nc(OC[C@@]67CCCN6C[C@H](F)C7)nc5c3F)N([C@H](CC3CCOCC3)c3cc(F)cnc3N)CCO4)c12` [Compound 634, 2-amino-4-(4-((R)-1-(2-amino-5-fluoropyridin-3-yl)-2-(tetrahydro-2H-pyran-4-yl)ethyl)-10-fluoro-2-(((2R,7aS)-2-fluorotetrahydro-1H-pyrrolizin-7a(5H)-yl)methoxy)-8-(trifluoromethyl)-5,6-dihydro-4H-[1,4]oxazepino[5,6,7-de]quinazolin-9-yl)-7-fluorobenzo[b]thiophene-3-carbonitrile], the IC50 in assay [1], in assay [2], in assay [3] and in assay [4] was no more than 2000 nM in each case.
Turning to `COc1ccc([C@@H](C)N2CCOc3c(Cl)c(-c4ccc(F)c5sc(N)c(C#N)c45)c(F)c4nc(OC[C@@]56CCCN5C[C@H](F)C6)nc2c34)c(N)n1` [Compound 706, 2-amino-4-(4-((R)-1-(2-amino-6-methoxypyridin-3-yl)ethyl)-8-chloro-10-fluoro-2-(((2R,7aS)-2-fluorotetrahydro-1H-pyrrolizin-7a(5H)-yl)methoxy)-5,6-dihydro-4H-[1,4]oxazepino[5,6,7-de]quinazolin-9-yl)-7-fluorobenzo[b]thiophene-3-carbonitrile], the half-maximal inhibitory concentration (IC50) in assay [1], in assay [2], in assay [3] and in assay [4] was no more than 2000 nM in each case.
In the case of `C[C@H](c1cccnc1F)N1CCOc2c(C(F)(F)F)c(-c3ccc(F)c4sc(N)c(C#N)c34)c(F)c3nc(OC[C@@]45CCCN4C[C@H](F)C5)nc1c23` [Compound 817, 2-amino-7-fluoro-4-(10-fluoro-4-((R)-1-(2-fluoropyridin-3-yl)ethyl)-2-(((2R,7aS)-2-fluorotetrahydro-1H-pyrrolizin-7a(5H)-yl)methoxy)-8-(trifluoromethyl)-5,6-dihydro-4H-[1,4]oxazepino[5,6,7-de]quinazolin-9-yl)benzo[b]thiophene-3-carbonitrile], the half-maximal inhibitory concentration (IC50) in assay [1], in assay [2], in assay [3] and in assay [4] was no more than 2000 nM throughout.
Consider `CO[C@H]1CCN(C)[C@@H]1[C@H](C)Oc1nc2c3c(c(C(F)(F)F)c(-c4ccc(F)c5sc(N)c(C#N)c45)c(F)c3n1)OCCN2[C@H](C)c1cc(F)cnc1N` [Compound 630, 2-amino-4-(4-((R)-1-(2-amino-5-fluoropyridin-3-yl)ethyl)-10-fluoro-2-((S)-1-((2R,3S)-3-methoxy-1-methylpyrrolidin-2-yl)ethoxy)-8-(trifluoromethyl)-5,6-dihydro-4H-[1,4]oxazepino[5,6,7-de]quinazolin-9-yl)-7-fluorobenzo[b]thiophene-3-carbonitrile], for which the half-maximal inhibitory concentration (IC50) in assay [1], in assay [2], in assay [3] and in assay [4] was no more than 2000 nM in each case.
`N#Cc1c(N)sc2c(F)ccc(-c3c(C(F)(F)F)c4c5c(nc(OC[C@@]67CCCN6CC(=C(F)F)C7)nc5c3F)N([C@H](CCC3CCOCC3)c3cccnc3N)CCO4)c12` [Compound 808, 2-amino-4-(4-((R)-1-(2-aminopyridin-3-yl)-3-(tetrahydro-2H-pyran-4-yl)propyl)-2-(((S)-2-(difluoromethylene)tetrahydro-1H-pyrrolizin-7a(5H)-yl)methoxy)-10-fluoro-8-(trifluoromethyl)-5,6-dihydro-4H-[1,4]oxazepino[5,6,7-de]quinazolin-9-yl)-7-fluorobenzo[b]thiophene-3-carbonitrile]: the IC50 in assay [1], in assay [2], in assay [3] and in assay [4] was no more than 2000 nM in each case.
`N#Cc1c(N)sc2c(F)ccc(-c3c(C(F)(F)F)c4c5c(nc(OC[C@@]67CCCN6C[C@@]6(CC6(F)F)C7)nc5c3F)N([C@H](CCC3CCOCC3)c3cccnc3N)CCO4)c12` [Compound 650, 2-amino-4-(4-((R)-1-(2-aminopyridin-3-yl)-3-(tetrahydro-2H-pyran-4-yl)propyl)-2-(((1S,7a′S)-2,2-difluorodihydro-1′H,3′H-spiro[cyclopropane-1,2′-pyrrolizin]-7a′(5′H)-yl)methoxy)-10-fluoro-8-(trifluoromethyl)-5,6-dihydro-4H-[1,4]oxazepino[5,6,7-de]quinazolin-9-yl)-7-fluorobenzo[b]thiophene-3-carbonitrile]: the concentration for half-maximal inhibition (IC50) in assay [1], in assay [2], in assay [3] and in assay [4] was no more than 2000 nM each time.
Regarding `CC(c1cccnc1N)N1c2nc(OC[C@@]34CCCN3C[C@H](F)C4)nc3c(F)c(-c4ccc(F)c5sc(N)c(C#N)c45)c(Cl)c(c23)OC[C@@H]1CC#N` (mixture of isomers) [Compound 615, 2-amino-4-((5S)-4-(1-(2-aminopyridin-3-yl)ethyl)-8-chloro-5-(cyanomethyl)-10-fluoro-2-(((2R,7aS)-2-fluorotetrahydro-1H-pyrrolizin-7a (5H)-yl)methoxy)-5,6-dihydro-4H-[1,4]oxazepino[5,6,7-de]quinazolin-9-yl)-7-fluorobenzo[b]thiophene-3-carbonitrile], the IC50 in assay [1], in assay [3] and in assay [4] was no more than 2000 nM in each case.
